Reference: ChEMBL document CHEMBL1201862, “PubChem BioAssay data set” (2004)
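Exposure lasted 48 hours, with cells grown in 96-well plates and compounds tested at five concentrations. Abbreviation: GI50, concentration required for 50% inhibition of growth.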 Activity calls are given as the source filed them. No stated cut-off is given here; in the data, active = GI50 up to about 1.1 µM and inactive = higher.

Columns and labels:
Test in all cases: inhibition of tumour cell growth, NCI panel, 48 h
MOLT-4 = tested on: MOLT-4
U-251 = tested on: U-251
KM-20L2 = tested on: KM-20L2
SK-MEL-2 = tested on: SK-MEL-2
HOP-92 = tested on: HOP-92
RXF 393 = tested on: RXF 393
ACHN = tested on: ACHN
NCI-H460 = tested on: NCI-H460
DLD-1 = tested on: DLD-1
SK-OV-3 = tested on: SK-OV-3
Malme-3M = tested on: Malme-3M
XF498 = tested on: XF498
SNB-78 = tested on: SNB-78
NCI-H522 = tested on: NCI-H522
SF-295 = tested on: SF-295

Measured: GI50

CCN(CC)CCC(=O)c1ccccc1
inactive: MOLT-4 19.2 µM | U-251 23.3 µM | KM-20L2 21.5 µM | SK-MEL-2 > 100 µM | HOP-92 13.1 µM | RXF 393 20.4 µM | ACHN 16.2 µM | NCI-H460 30.8 µM

OC12c3ccccc3C1CCCCCCCCCC21OCCCO1 (stereo not given)
inactive: DLD-1 > 100 µM | SK-OV-3 > 100 µM | Malme-3M > 100 µM | XF498 > 100 µM | SNB-78 > 100 µM | NCI-H522 > 100 µM | SF-295 > 100 µM
